Experimental data reported in patent US6713459B1, “Methods for the prophylactic and therapeutic treatment of cardiac tissue damage” (East Tennessee State University, priority 2000, dated 2004).
Read-outs that look alike come from different tables or passages of the source.

Assays:
[1] = target: macrophage (1→3)-β-D-Glucan receptor; conditions: cited from earlier work
[2] = system: rat hearts subjected to ischemia/reperfusion; assay: myocardial infarct size after LAD occlusion and reperfusion, TTC staining; assay type: in vivo, Sprague-Dawley rats; conditions: 4 hr reperfusion; for infarct size/area at risk: mean±SEM
Procedure: (§1) Ischemia/reperfusion protocols were performed using Sprague-Dawley rats (Harlan Sprague-Dawley, Indianapolis, Indiana). Left anterior descending (LAD) coronary artery occlusion was performed by tying off the LAD artery near its origin using a suture. Glucan phosphate was employed in the ischemia reperfusion (I/R) studies.
Sprague-Dawley rats (250-300 g) were treated, with (1→3)-β-D-glucans at a concentration of 40 mg/kg one hour before the hearts were subjected to 45 minutes of occlusion of the left anterior descending (LAD) coronary artery, followed by reperfusion for 4 hours. At the completion of the experimental protocol, the heart was removed, rinsed free of blood, stained with 1% Evans Blue, and sectioned into five slices, followed by incubation in triphenyltetrazolium chloride (TTC) solution. Viable myocardium (risk area) was stained with TTC while the necrotic myocardium was pale white. The area of infarction on both sides of each slice was analyzed by an image analyzer (Alpha Imager 2000), corrected for each slice weight and summed for each left ventricle. The infarct areas were expressed as a percentage of risk area as well as a percentage of left ventricle and the risk areas were expressed as a percentage of left ventricle.
Glucan phosphate (40 mg/kg) was administered to rats via intravenous route 5 min. after the rat hearts were subjected to occlusion of the left afterior descending (LAD) coronary artery, followed by 4 hr. reperfusion. Subsequently, the hearts were harvested and the infarct size/area at risk was determined using TTC staining and image analysis as described previously. FIG. 19 illustrates results, with infarct size expressed as percentage of risk area and risk area expressed as percentage of the left ventricle.

IL-6 mRNA = assay: RT-PCR of IL-6 mRNA levels in liver and lung after CLP; assay type: in vivo, ICR/HSD mice
Procedure: (§2) Cytokine reverse transcriptase-polymerase chain reaction (RT-PCR) assays were performed using standard techniques known to those of skill in the art. Upstream and downstream primers for murine TNF-α and IL-6 were used to detect presence of those cytokines. Reduced glyceraldehyde phosphate dehydrogenase (GAPDH) was used as the gene transcript control.
(§3) In studies of (1→3)-β-D-glucan effects on tissue damage due to sepsis, blood (˜0.3 ml) was obtained by open heart puncture from groups of 3 ICR/HSD mice subjected to cecal ligation and puncture (CLP), performed according to the method of Baker et al., Suryery (1983) 94: 331-335, as described by Ayala et al., Circ. Shock (1992) 36: 191-199. Mice subjected to laparotomy only (LO) served as surgical and anesthesia controls. Negative controls were not subjected to either procedure. Blood samples were collected from each group at 1, 2, 4, 8, and 24 hours after surgery. Samples were inoculated into prereduced anaerobically sterilized chopped meat carbohydrate broth (Carr-Scarborough, Stone Mountain, Ga.) under a constant stream of anaerobic carbon dioxide in a VPI Inoculator (Bellco Glass, Vineland, N.J.). After mixing, 1 ml of inoculated broth was aseptically removed from each 6-ml rubber-stoppered anaerobic tube into a sterile loose-capped aerobic culture tube. Both aerobic and anaerobic culture tubes were incubated at 37° C. for 72 hours.
(§4) In pretreatment protocols, 45 mice were randomly divided into 3 groups of 15 mice per group. Group 1 received isovolumetric saline solution intraperitoneally 1 hour before CLP. Group 2 received glucan phosphate (1 mg/mouse=50 mg/kg, intraperitoneally) 1 hour prior to CLP. Group 3 received scleroglucan (1 mg/mouse=50 mg/kg, intraperitoneally) 1 hour prior to CLP. […]
(§5) Survival trends were compared with the Cox proportional hazard and log-rank procedures. […] Differences in bacteremia between LO and CLP groups were assessed with exact probability level determinations. […]

TNF-α mRNA = assay: RT-PCR of TNF-α mRNA levels in liver and lung after CLP; assay type: in vivo, ICR/HSD mice
Procedure: as §2, §3, §4, §5

NF-κB [3] = assay: EMSA of NF-κB nuclear binding activity in liver and lung after cecal ligation and puncture (CLP); assay type: in vivo, ICR/HSD mice; conditions: for decrease of liver NF-κB binding activity / decrease of lung NF-κB binding activity: tissue 3 hours after CLP
Procedure: (§6) Nuclear extracts were prepared by homogenizing tissue in hypotonic buffer containing protease inhibitors and incubating the homogenates on ice for approximately 30 minutes with gentle agitation. After cells were lysed, nuclei were collected by centrifugation (14,000 revolutions/min for 5 minutes). Nuclear proteins were extracted by incubating the nuclear fraction on ice for 30 minutes in hypertonic salt buffer containing protease inhibitors. Nuclear extract supernatant was harvested after centrifugation, then stored at −80° C. Protein was quantified by the BCA microprotein assay (Pierce, Rockford, Ill.).
(§7) The electrophoretic mobility shift assay (EMSA) was performed using double-stranded consensus binding site oligonucleotides for NF-κB and NF-IL6 (C/EBP, CCAAT enhancer binding protein), obtained from Santa Cruz Biotechnology (Santa Cruz, Calif.). Oligonucleotides were end-labeled with [γ-^32P]-labeled adenosine triphosphate (Amersham, Arlington Heights, Ill.) with T4 polynucleotide kinase (Promega, Madison, Wis.), using methods known to those of skill in the art. Binding assays were performed in 10 μl of binding reaction mixture containing 10 μg of nuclear proteins and [γ-^32P]-labeled NF-κB or NF-IL6 oligonucleotides. The binding reaction mixture was incubated at room temperature for 20 minutes, then electrophoresed on 4% non-denaturing polyacrylamide gel electrophoresis (PAGE) gels. Specificity of binding was confirmed by addition of a 10-fold excess of cold oligonucleotide to separate reaction mixtures. A 10-fold excess of cold oligonucleotide containing the AP-1 binding site was added to separate reaction mixtures as an additional control. After PAGE, gels were dried and exposed to Kodak X-omat® film at −70° C. Autoradiograms were quantified by scanning densitometry with a Sun IPC workstation running Bioimage® software (Millipore, Bedford, Mass.).
as §3
(§8) In pretreatment protocols, 45 mice were randomly divided into 3 groups of 15 mice per group. Group 1 received isovolumetric saline solution intraperitoneally 1 hour before CLP. Group 2 received glucan phosphate (1 mg/mouse=50 mg/kg, intraperitoneally) 1 hour prior to CLP. Group 3 received scleroglucan (1 mg/mouse=50 mg/kg, intraperitoneally) 1 hour prior to CLP. To assess tissue transcription factor activation and cytokine messenger RNA (mRNA) levels, liver and lung tissue were harvested from 5 mice per group at 3 hours after surgery. […] Laparoscopy-only (LO) controls and negative controls received the same saline, glucan phosphate, and scleroglucan treatment as CLP mice.
(§9) In post-treatment protocols, 30 mice were subjected to CLP. These 30 mice were then randomly divided into 2 groups of 15 mice per group. Group 1 received isovolumetric saline solution intravenously 15 minutes post surgery. Group 2 received glucan phosphate (1 mg/mouse=50 mg/kg, intravenously) 15 minutes postsurgery. […]

[4] = system: ICR/HSD mice subjected to CLP (polymicrobial sepsis); assay: survival of mice with polymicrobial sepsis induced by CLP; assay type: in vivo; conditions: for long-term survival rate: CLP control 20%
Procedure: as §3, §8
In post-treatment protocols, 30 mice were subjected to CLP. These 30 mice were then randomly divided into 2 groups of 15 mice per group. […]
as §5

NF-IL6 = assay: EMSA of NF-IL6 nuclear binding activity in liver and lung after CLP; assay type: in vivo, ICR/HSD mice; conditions: for decrease of liver NF-IL6 binding activity / decrease of lung NF-IL6 binding activity: tissue 3 hours after CLP
Procedure: as §6, §7, §3, §8, §9

IκBα = assay: Western blot of cytoplasmic IκBα in rat myocardium after I/R; assay type: in vivo, Sprague-Dawley rats; conditions: 40 mg/Kg one hr before 15 min ischemia and 30 min reperfusion
Procedure: FIG. 15 is a graphic representation of effect of glucan on loss of IκBα from rat myocardial cytoplasm following I/R. Rats were pretreated with glucan (40 mg/Kg) for one hr. before being subjected to 15 min. of ischemia and 30 min. of reperfusion. Cytoplasmic proteins were isolated and levels of IκBα protein determined by Western blot analysis. Results were expressed as means±SEM for 5 hearts at each time point. P<0.05 as compared to normal (N).
as §1
(§10) To investigate NF-κB activation in vivo, rat hearts were subjected to various periods of ischemia or ischemia and reperfusion (I/R). For example, levels of IκBα and phosphorylated IκBα proteins in cell cytoplasm following ischemia were evaluated by Western blot with anti-IκBα or antibody specific for the phosphorylated […] (FIG. 9a). NF-κB binding activity in the nucleus following onset of ischemia was analyzed by electrophoretic mobility shift assay (EMSA) (FIG. 10a). […]

[5] = system: cardiac myocyte apoptosis; assay: TUNEL assay of cardiac myocyte apoptosis after I/R; assay type: in vivo, Sprague-Dawley rats; conditions: 40 mg/kg 1 hr before 30 min ischemia, 3 hr reperfusion; untreated I/R hearts 17.17±1.41%
Procedure: as §1
The effects of (1→3)-β-D-glucan on apoptosis were investigated using rats treated with (1-3)-β-D-glucan (40 mg/kg) 1 hr. before the. hearts were subjected to 30 min. of ischemia followed by 3 hr. reperfusion. Upon completion of the protocol, the hearts were removed, rinsed free of blood, and perfused with freshly prepared phosphate-buffered 4% formaldehyde. Heart segments distal to the ligation were horizontally sliced into 2 mm sections and fixed with phosphate-buffered 4% formaldehyde at 4° C. overnight. The terminal deoxynucleotidyl transferase-mediated dUTP nick end-labeling (TUNEL) technique (Gavrieli, Y., et al., J. Cell Biol. (1992) 119: 493-501) was used to quantitate the level of apoptosis, using an In Situ Cell Death Detection Kit (Roche Diagnostics) and manufacturer's instructions. Briefly, three slides from each block were evaluated to determine the percentage of TUNEL positive cells. For each slide, four fields were randomly examined using a defined rectangular field area with magnification of 200×. A total of 100 cells were counted in each field. […]

TNFα mRNA = assay: RT-PCR of TNFα mRNA in rat myocardium after I/R; assay type: in vivo, Sprague-Dawley rats; conditions: 40 mg/Kg 1 hr before 15 min ischemia and 1 hr reperfusion
Procedure: FIG. 17 depicts RT-PCR analysis of total RNA obtained from rat myocardium pretreated with glucan (40 mg/Kg) for 1 hr. prior to 15 min. ischemia and 1 hr. reperfusion. TNFα and GAPDH are labeled at right to indicate the position of the corresponding RNA. M is a 100 bp DNA ladder. As indicated, pretreatment with glucan (I15′R1 hr+Glucan) decreases myocardial TNFα mRNA expression after I/R.
as §1
The inventors also investigated whether (1→3)-β-D-glucans regulate TNFα gene expression. […] (1→3)-β-D-glucan down-regulates LPS-induced TNFα mRNA expression in vivo.

NF-κB [6] = assay: EMSA of nuclear NF-κB binding activity in rat myocardium after I/R; assay type: in vivo, Sprague-Dawley rats; conditions: 40 mg/Kg one hr before ischemia (I45 or I15R30)
Procedure: Rats were pretreated with glucan (40 mg/Kg) for one hr. before being subjected to 45 min. of ischemia (I45), as well as 15 min. ischemia followed by 30 min. reperfusion (I15R30). Nuclear proteins were isolated and analyzed by EMSA. Results are expressed as means±SEM for 5 hearts at each time point. P<0.05 as compared to normal (N).
as §1, §10
NF-κB nuclear binding activity in rat myocardium after in vivo I/R was also determined. […]

[7] = posttreatment 50 mg/kg intravenously 15 minutes post surgery
[8] = pretreatment 50 mg/kg, 3 hours after CLP
[9] = posttreatment 50 mg/kg intravenously 15 minutes after CLP
[10] = pretreatment 50 mg/kg 1 hour before CLP

glucan phosphate
Kd ([1]; low affinity, read-out: affinity for the macrophage (1→3)-β-D-glucan receptor): 24 µM | reduction of infarct size/area at risk compared to control IR group ([2]; 40 mg/kg intravenously 5 min after LAD occlusion): 53% | infarct size/area at risk ([2]; 40 mg/kg intravenously 5 min after LAD occlusion, control IR 51.03±3.69%): 24.39±2.00% | effect on hepatic IL-6 mRNA levels (IL-6 mRNA; [7]): not altered | suppression of lung IL-6 mRNA levels relative to CLP controls (IL-6 mRNA; [7]): 30% | suppression of hepatic IL-6 mRNA levels relative to CLP controls (IL-6 mRNA; [8]): 49% | suppression of hepatic TNF-α mRNA levels relative to CLP controls (TNF-α mRNA; [7]): 31% | suppression of lung TNF-α mRNA levels relative to CLP controls (TNF-α mRNA; [7]): 28% | suppression of hepatic TNF-α mRNA levels relative to CLP controls (TNF-α mRNA; [8]): 44% | decrease of liver NF-κB binding activity (NF-κB [3]; [9]): 42% | decrease of lung NF-κB binding activity (NF-κB [3]; [9]): 54% | decrease of liver NF-κB binding activity (NF-κB [3]; [10]): 58% | decrease of lung NF-κB binding activity (NF-κB [3]; [10]): 81% | long-term survival rate ([4]; single posttreatment injection 50 mg/kg intravenously 15 minutes after CLP): 65% | long-term survival rate ([4]; single prophylactic injection 50 mg/kg intraperitoneally 1 hour before CLP): 65% | decrease of liver NF-IL6 binding activity (NF-IL6; [9]): 95% | decrease of lung NF-IL6 binding activity (NF-IL6; [9]): 63% | decrease of liver NF-IL6 binding activity (NF-IL6; [10]): 77% | decrease of lung NF-IL6 binding activity (NF-IL6; [10]): 68%

scleroglucan
Kd ([1]; high affinity, read-out: affinity for the (1→3)-β-D-glucan receptor): 0.011 µM | decrease of liver NF-κB binding activity (NF-κB [3]; [10]): 54% | effect on lung NF-κB nuclear binding activity (NF-κB [3]; [8]): inhibited | effect on long-term survival ([4]; 50 mg/kg intraperitoneally 1 hour before CLP): increased long-term survival | decrease of liver NF-IL6 binding activity (NF-IL6; [10]): 38% | effect on lung NF-IL6 nuclear binding activity (NF-IL6; [8]): inhibited

(1→3)-β-D-glucan
infarct size/area at risk ([2]; 40 mg/kg one hour before 45 min LAD occlusion, untreated 48.82±3.03%): 25.86±2.33% | effect on cytoplasmic IκBα after I/R (IκBα): prevent loss | apoptotic cell nuclei (TUNEL positive) [5]: 3.33±0.71% | effect on I/R increase in TNFα mRNA levels (TNFα mRNA): significantly inhibited | effect on I/R induced myocardial NF-κB binding activity (NF-κB [6]): markedly reduced, but did not completely inhibit
